Source: US20230357139A1, “SMALL MOLECULE INHIBITORS OF BACTERIAL TOXINS” (Artizan Biosciences, Inc., priority 2020, published 2023)
pIC50: −log10 of the molar value.

The compounds below were run on recombinant BFT (rBFT) (assay: NFF-3 cleavage assay). Details: rBFT pre-incubated with compound 30 minutes at 37° C., then NFF-3 for 24 hours; read-out: NFF3 IC50.
Format: biochemical, B. fragilis
Description: A NFF-3 cleavage assay was used to test activity of recombinant BFT, before or after addition of various inhibitors. The NFF-3 cleavage assay was previously described by Goulas et al., PNAS, 2011, 108(5) 1856-1861, which is incorporated by reference herein in its entirety.
Initially, recombinant BFT (rBFT) (0.25, 0.5, 1, 2, 4, 8, or 16 μg/mL) was incubated at 37° C. with the fluorogenic substrate NFF-3 (Cayman Chemical) at a concentration of 2.5 μM, 5 μM, or 10 μM. After 18 hours, fluorescence was measured in a microplate fluorimeter.
Next, rBFT was pre-incubated with one or more test compounds at different concentrations for 30 minutes at 37° C. The rBFT-compound mixture was then added to NFF-3 and incubated for 24 hours at 37° C. Fluorescence was then measured in a microplate fluorimeter.

Row | SMILES | pIC50
1 | CC(C)C[C@H](C(=O)NN)N(Cc1cccnc1)S(=O)(=O)c1ccc(O)cc1 [Example 34] | 4.55
2 | CCC(C)[C@H](C(=O)NO)N(Cc1cccnc1)S(=O)(=O)c1ccc(O)cc1 (stereo partly drawn) [Example 36] | 6.62
3 | CC(C)C[C@H](C(=O)NO)N(Cc1cccnc1)S(=O)(=O)c1ccc(C(C)O)cc1 (stereo partly drawn) [Example 37] | 4.30
4 | CC(=O)c1ccc(S(=O)(=O)N(Cc2cccnc2)[C@H](CC(C)C)C(=O)NO)cc1 [Example 38] | 5.21
5 | CC(C)C[C@H](C(=O)NO)N(Cc1cccnc1)S(=O)(=O)c1cccc(C(N)=O)c1 [Example 39] | 4.10
6 | CC(C)C[C@H](C(=O)NO)N(Cc1cccnc1)S(=O)(=O)c1ccc(NS(C)(=O)=O)cc1 [Example 41, (R)—N-hydroxy-4-methyl-2-((4-(methylsulfonamido)-N-(pyridin-3-ylmethyl)phenyl)sulfonamido) pentanamide] | 4.62
7 | CC(C)C[C@H](C(=O)NO)N(Cc1cccnc1)S(=O)(=O)c1ccc(N)cc1 [Example 43] | 5.52
8 | CCCC[C@H](C(=O)NO)N(Cc1cccnc1)S(=O)(=O)c1ccc(O)cc1 [Example 44] | 6.89
9 | CC(C)C[C@H](C(=O)NO)N(Cc1cccnc1)S(=O)(=O)c1ccc(C(N)=O)cc1 [Example 46] | 5.21
10 | CC(C)C[C@H](C(=O)NO)N(Cc1cccnc1)S(=O)(=O)c1ccc(C#N)cc1 [Example 47] | 5.22
11 | O=C(NO)[C@@H](CC(F)F)N(Cc1cccnc1)S(=O)(=O)c1ccc(O)cc1 [Example 48] | 4.84
12 | CC(C)C[C@H](C(=O)NO)N(Cc1cccnc1)S(=O)(=O)c1ccc(NC=O)cc1 [Example 49, (R)-2-((4-formamido-N-(pyridin-3-ylmethyl)phenyl)-sulfonamido)-N-hydroxy-4-methyl pentanamide] | 5.09
13 | O=C(NO)[C@@H](CO)N(Cc1cccnc1)S(=O)(=O)c1ccc(O)cc1 [Example 50] | 6.29
14 | CC(C)C[C@H](C(=O)NO)N(Cc1cccnc1)S(=O)(=O)c1ccc(-c2nnn[nH]2)cc1 [Example 51] | < 3.70
15 | CC(C)C[C@H](C(=O)NO)N(Cc1cccnc1)S(=O)(=O)c1ccc(C(=N)N)cc1 [Example 52] | 4.56
16 | COC[C@H](C(=O)NO)N(Cc1cccnc1)S(=O)(=O)c1ccc(O)cc1 [Example 53] | 6.24
17 | COCC[C@H](C(=O)NO)N(Cc1cccnc1)S(=O)(=O)c1ccc(O)cc1 [Example 54] | 6.40
18 | CC(C)CN(CC(=O)NO)S(=O)(=O)c1ccc(O)cc1 [Example 56] | 5.34
19 | CC[C@H](C(=O)NO)N(Cc1cccnc1)S(=O)(=O)c1ccc(O)cc1F [Example 57] | 6.71
20 | CC[C@H](C(=O)NO)N(Cc1cccnc1)S(=O)(=O)c1ccc(O)c(F)c1 [Example 58] | 6.29
21 | CC[C@H](C(=O)NO)N(Cc1cccnc1)S(=O)(=O)c1ccc(O)c(Cl)c1 [Example 59] | 5.37
22 | COc1ccc(S(=O)(=O)N(Cc2cccnc2)[C@H](C(=O)NO)C(C)C)cc1 [Example 64] | 5.08
23 | COc1ccc(S(=O)(=O)N(Cc2ccccc2)[C@H](C(=O)NO)C(C)C)cc1F [Example 65] | 4.55
24 | O=C(NO)[C@@H](Cc1cocn1)N(Cc1cccnc1)S(=O)(=O)c1ccc(O)cc1 [Example 67] | 5.37
25 | CC(C)[C@@H](C(=O)NO)N(Cc1ccccc1)S(=O)(=O)c1ccc(O)c(F)c1 [Example 68] | 4.30
26 | CC(C)[C@@H](C(=O)NO)N(Cc1ccccc1)S(=O)(=O)c1cccc(C(F)(F)F)c1 [Example 69] | 3.16
27 | CC[C@H](C(=O)NO)N(Cc1cccnc1)S(=O)(=O)CCNC(=O)CSC [Example 70] | 3.79
28 | CC(C)[C@@H](C(=O)NO)N(Cc1ccccc1)S(=O)(=O)c1c(F)c(F)c(F)c(F)c1F [Example 72] | 3.20
29 | COc1ccc(S(=O)(=O)N(Cc2cccnc2)CC(O)CSC(C)=O)cc1 (stereo not drawn) [Example 75] | < 4.00
30 | CC(C)[C@H](C(=O)NO)N(Cc1cccnc1)S(=O)(=O)c1ccsc1 [Example 76] | 5.00
